Test results published in US10434083B2, “Transmammary delivery of cyclooxygenase-2 inhibitors for analgesia in neonates” (Iowa State University Research Foundation, Inc., priority 2018, dated 2019).

Experiment: in vivo
Parameters: species or system swine
Conditions: for AUMC / AUMClast / AUCINF / AUC_Exp / AUC∞ extrpl / Lamda_HL / Lamda_Z / λZ / T1/2λZ: both; for Lamda_HL / Lamda_Z / λZ / T1/2λZ: swine
Procedure: Blood samples for firocoxib determination were collected from the sows and three piglets/litter (two male and one female piglet at each time point) at 0, 2, 4, 6, 8, 12, 24, 48, 72, 96, and 120 h post-drug injection to the sow. The blood sample from each sow (8 mL/sample) was collected via the left or right jugular vein using a 25.4-mm, 16-gauge hypodermic needle (Air-Tite Products, Virginia Beach, Va.) attached to a 12-mL Luer-Lok syringe (TycoHealth Care, Mansfield, Mass.). During blood collection, a pig snare was used for manual restraint of each sow in her crate. The blood samples (2 mL/sample) from the piglets were collected from the left or right cranial vena cava using a 3.8-cm, 20-gauge hypodermic needle (TycoHealth Care, Mansfield, Mass.) attached to a 3-mL syringe (TycoHealth Care, Mansfield, Mass.). Physical restraint of the piglet was achieved by placing the animal in a supine position during sample collection. Blood samples were transferred to 6-mL evacuated tubes that contained lithium heparin (Vacuette plasma tubes, Greiner Bio-One, Monroe, N.C.) that were stored on ice for up to 2 h before processing. The blood samples were centrifuged for 10 min at 1,500×g. The plasma was then removed, placed in cryovials, and frozen at −80° C. until analysis.
On Day 0, the pharmacokinetic portion of the study commenced. The test article was administered intramuscularly in the right neck to sows. Blood samples for Firocoxib determination were collected by jugular venipuncture from sows and 3 piglets/litter (2 male and one female at each timepoint) at 0, 2, 4, 6, 8, 12, 24, 48, 72, 96 and 120 hours after drug injection in the sow.
Plasma concentrations of firocoxib were determined using high-pressure liquid chromatography (Agilent 1100 Pump, Column Compartment and Autosampler, Agilent Technologies, Santa Clara, Calif., USA) with mass spectrometry detection (LTQ Ion Trap, Thermo Scientific, San Jose, Calif., USA). Briefly, frozen samples or standards were thawed at room temperature and rigorously vortexed once completely thawed. […] Plasma samples, plasma spikes, plasma quality control samples, and blanks (100 μL) were then protein-precipitated in 1.5-mL microcentrifuge tubes with 400 μL acetonitrile/0.1% formic acid. A d6-firocoxib internal standard was incorporated into the acetonitrile precipitating agent at a concentration of 200 ng/mL. The samples were vortexed for 5 seconds after addition of the acetonitrile and centrifuged for 20 min at 3,773×g to sediment the protein pellet. Following centrifugation, the supernatant was poured into cell culture tubes and evaporated to dryness in a Turbovap concentration evaporator at 48° C. The tube contents were reconstituted with 150 μL 25% acetonitrile and transferred to autosampler vials equipped with 300-μL glass inserts. The samples were centrifuged at 770×g before liquid chromatography-mass spectroscopy (LC-MS) analysis.
Twelve calibration spikes were prepared in blank porcine plasma in the concentration range of 1-5,000 ng/mL for the samples from the sows. The samples from the piglets were analyzed using a narrower range of calibration spikes of 1-500 ng/mL. A linear (1/X) fit was used for the piglet plasma samples and the narrower 1-500 ng/mL concentration range. A quadratic (1/X) fit was used for the sow plasma samples and the 1-5,000 ng/mL concentration range.
Plasma and tissue firocoxib concentrations were determined using high-pressure liquid chromatography (Agilent 1100 Pump, Column Compartment and Autosampler, Agilent Technologies, Santa Clara, Calif.) with mass spectrometry detection (LTQ Ion Trap, Thermo Scientific, San Jose, Calif.). A 25-μL injection volume was used for the LC-MS analysis. The mobile phases were A (0.1% formic acid in water) and B (0.1% formic acid in acetonitrile), at flow rates of 0.275 mL/min. […]

Question: With CC1(C)OC(=O)C(OCC2CC2)=C1c1ccc(S(C)(=O)=O)cc1 [firocoxib] as the molecule, how does the AUC(0-inf) (both sexes, pig, 0.5 mg/kg) read?
Answer: 690 ng·h/mL

Question: And the AUC(0-t) (both sexes, pig, 0.5 mg/kg, Piglet AUClast)?
Answer: 635 ng·h/mL

Question: What about the AUC(0-inf) (both sexes, pig, 1 mg/kg) of the same molecule?
Answer: 3180 ng·h/mL

Question: What about the AUC(0-t) (both sexes, pig, 1 mg/kg, Piglet AUClast) of the same molecule?
Answer: 2470 ng·h/mL

Question: What about the AUC(0-inf) (both sexes, pig, 1.5 mg/kg) of the same molecule?
Answer: 4620 ng·h/mL

Question: What about the AUC(0-t) (both sexes, pig, 1.5 mg/kg, Piglet AUClast) of the same molecule?
Answer: 3900 ng·h/mL

Question: And the AUC(0-inf) (both sexes, pig, 2 mg/kg)?
Answer: 3650 ng·h/mL

Question: What about the AUC(0-t) (both sexes, pig, 2 mg/kg, Piglet AUClast) of the same molecule?
Answer: 3220 ng·h/mL

Question: What about the half-life (both sexes, pig, im) of the same molecule?
Answer: 30.9 to 48.7 h

Question: What about the AUC(0-inf) (both sexes, pig, im, 0.5 mg/kg) of the same molecule?
Answer: 690 ng·h/mL

Question: And the Cmax (both sexes, pig, im, 0.5 mg/kg)?
Answer: 9.53 ng/mL

Question: What about the Tmax (both sexes, pig, im, 0.5 mg/kg) of the same molecule?
Answer: 24 h

Question: What about the AUC(0-t) (both sexes, pig, im, 0.5 mg/kg, AUC 0-24 h) of the same molecule?
Answer: 176 ng·h/mL

Question: What about the AUC(0-t) (both sexes, pig, im, 0.5 mg/kg, AUC0-24h) of the same molecule?
Answer: 176 ng·h/mL

Question: And the AUC(0-t) (both sexes, pig, im, 0.5 mg/kg, AUC0-last)?
Answer: 635 ng·h/mL

Question: And the AUC(0-t) (both sexes, pig, im, 0.5 mg/kg, AUClast)?
Answer: 635 ng·h/mL

Question: And the MRT last (both sexes, pig, im, 0.5 mg/kg, MRT0-last)?
Answer: 44.8 h

Question: And the MRT last (both sexes, pig, im, 0.5 mg/kg, MRT last)?
Answer: 44.8 h

Question: What about the AUC(0-inf) (both sexes, pig, im, 1 mg/kg) of the same molecule?
Answer: 3180 ng·h/mL

Question: And the Cmax (both sexes, pig, im, 1 mg/kg)?
Answer: 31 ng/mL

Question: What about the Tmax (both sexes, pig, im, 1 mg/kg) of the same molecule?
Answer: 24 h

Question: What about the AUC(0-t) (both sexes, pig, im, 1 mg/kg, AUC 0-24 h) of the same molecule?
Answer: 407 ng·h/mL

Question: What about the AUC(0-t) (both sexes, pig, im, 1 mg/kg, AUC0-24h) of the same molecule?
Answer: 407 ng·h/mL

Question: And the AUC(0-t) (both sexes, pig, im, 1 mg/kg, AUC0-last)?
Answer: 2470 ng·h/mL

Question: And the AUC(0-t) (both sexes, pig, im, 1 mg/kg, AUClast)?
Answer: 2470 ng·h/mL

Question: What about the MRT last (both sexes, pig, im, 1 mg/kg, MRT0-last) of the same molecule?
Answer: 55.4 h

Question: What about the MRT last (both sexes, pig, im, 1 mg/kg, MRT last) of the same molecule?
Answer: 55.4 h

Question: And the AUC(0-inf) (both sexes, pig, im, 1.5 mg/kg)?
Answer: 4620 ng·h/mL

Question: And the Cmax (both sexes, pig, im, 1.5 mg/kg)?
Answer: 53.3 ng/mL

Question: And the Tmax (both sexes, pig, im, 1.5 mg/kg)?
Answer: 24 h

Question: And the AUC(0-t) (both sexes, pig, im, 1.5 mg/kg, AUC 0-24 h)?
Answer: 662 ng·h/mL

Question: What about the AUC(0-t) (both sexes, pig, im, 1.5 mg/kg, AUC0-24h) of the same molecule?
Answer: 662 ng·h/mL

Question: What about the AUC(0-t) (both sexes, pig, im, 1.5 mg/kg, AUC0-last) of the same molecule?
Answer: 3900 ng·h/mL

Question: What about the AUC(0-t) (both sexes, pig, im, 1.5 mg/kg, AUClast) of the same molecule?
Answer: 3900 ng·h/mL

Question: And the MRT last (both sexes, pig, im, 1.5 mg/kg, MRT0-last)?
Answer: 54.4 h

Question: What about the MRT last (both sexes, pig, im, 1.5 mg/kg, MRT last) of the same molecule?
Answer: 52.4 h

Question: And the AUC(0-inf) (both sexes, pig, im, 2 mg/kg)?
Answer: 3650 ng·h/mL

Question: And the Cmax (both sexes, pig, im, 2 mg/kg)?
Answer: 44 ng/mL

Question: What about the Tmax (both sexes, pig, im, 2 mg/kg) of the same molecule?
Answer: 24 h

Question: What about the AUC(0-t) (both sexes, pig, im, 2 mg/kg, AUC 0-24 h) of the same molecule?
Answer: 609 ng·h/mL

Question: What about the AUC(0-t) (both sexes, pig, im, 2 mg/kg, AUC0-24h) of the same molecule?
Answer: 609 ng·h/mL

Question: And the AUC(0-t) (both sexes, pig, im, 2 mg/kg, AUC0-last)?
Answer: 3220 ng·h/mL

Question: What about the AUC(0-t) (both sexes, pig, im, 2 mg/kg, AUClast) of the same molecule?
Answer: 3220 ng·h/mL

Question: And the MRT last (both sexes, pig, im, 2 mg/kg, MRT0-last)?
Answer: 51.5 h

Question: And the MRT last (both sexes, pig, im, 2 mg/kg, MRT last)?
Answer: 51.5 h

Question: What about the AUMC (pig, 0.5 mg/kg) of the same molecule?
Answer: 28433.00 h^2 × ng/mL

Question: And the AUMClast (pig, 0.5 mg/kg)?
Answer: 28,443.00 h * h * ng/mL

Question: And the AUMC (pig, 1 mg/kg)?
Answer: 136805.00 h^2 × ng/mL

Question: What about the AUMClast (pig, 1 mg/kg) of the same molecule?
Answer: 136,805.00 h * h * ng/mL

Question: And the AUMC (pig, 1.5 mg/kg)?
Answer: 204246.00 h^2 × ng/mL

Question: What about the AUMClast (pig, 1.5 mg/kg) of the same molecule?
Answer: 204,246.00 h * h * ng/mL

Question: And the AUMC (pig, 2 mg/kg)?
Answer: 166016.00 h^2 × ng/mL

Question: What about the AUMClast (pig, 2 mg/kg) of the same molecule?
Answer: 166,016.00 h * h * ng/mL

Question: What about the AUCINF (pig, im, 0.5 mg/kg) of the same molecule?
Answer: 690.47 ng·h/mL

Question: What about the AUC_Exp (pig, im, 0.5 mg/kg) of the same molecule?
Answer: 0.08%

Question: And the “AUC∞ extrpl” value (pig, im, 0.5 mg/kg)?
Answer: 0.08%

Question: What about the AUCINF (pig, im, 1 mg/kg) of the same molecule?
Answer: 3178.00 ng·h/mL

Question: And the AUC_Exp (pig, im, 1 mg/kg)?
Answer: 0.22%

Question: And the “AUC∞ extrpl” value (pig, im, 1 mg/kg)?
Answer: 0.22%

Question: And the AUCINF (pig, im, 1.5 mg/kg)?
Answer: 4615.17 ng·h/mL

Question: And the AUC_Exp (pig, im, 1.5 mg/kg)?
Answer: 0.16%

Question: And the “AUC∞ extrpl” value (pig, im, 1.5 mg/kg)?
Answer: 0.16%

Question: What about the AUCINF (pig, im, 2 mg/kg) of the same molecule?
Answer: 3652.32 ng·h/mL

Question: And the AUC_Exp (pig, im, 2 mg/kg)?
Answer: 0.12%

Question: And the “AUC∞ extrpl” value (pig, im, 2 mg/kg)?
Answer: 0.12%

Question: What about the Lamda_HL (0.5 mg/kg) of the same molecule?
Answer: 30.86 h

Question: And the Lamda_Z (0.5 mg/kg)?
Answer: 0.02 h⁻¹

Question: What about the λZ (0.5 mg/kg) of the same molecule?
Answer: 0.02 h⁻¹

Question: And the Lamda_HL (1 mg/kg)?
Answer: 48.71 h

Question: And the Lamda_Z (1 mg/kg)?
Answer: 0.01 h⁻¹

Question: And the λZ (1 mg/kg)?
Answer: 0.01 h⁻¹

Question: What about the Lamda_HL (1.5 mg/kg) of the same molecule?
Answer: 37.91 h

Question: What about the Lamda_Z (1.5 mg/kg) of the same molecule?
Answer: 0.02 h⁻¹

Question: What about the λZ (1.5 mg/kg) of the same molecule?
Answer: 0.05 h⁻¹

Question: What about the Lamda_HL (2 mg/kg) of the same molecule?
Answer: 32.42 h

Question: And the Lamda_Z (2 mg/kg)?
Answer: 0.02 h⁻¹

Question: And the λZ (2 mg/kg)?
Answer: 0.02 h⁻¹

Question: What about the T1/2λZ (im, 0.5 mg/kg) of the same molecule?
Answer: 30.86 h

Question: What about the T1/2λZ (im, 1 mg/kg) of the same molecule?
Answer: 48.71 h

Question: And the T1/2λZ (im, 1.5 mg/kg)?
Answer: 37.91 h

Question: What about the T1/2λZ (im, 2 mg/kg) of the same molecule?
Answer: 32.42 h
